Measured values reported in patent publication US11739098B2 (BRISTOL-MYERS SQUIBB COMPANY, priority 2017, dated 2023).

Columns and labels:
Format in all cases: cell-based
human TLR7 = biological target: T1, human TLR7 (Homo sapiens, UniProt Q9NYK1); assay: TLR7 inhibition reporter assay (HEK-Blue cells, SEAP reporter, gardiquimod stimulation); settings: HEK-Blue cells overexpressing human TLR7, SEAP reporter, gardiquimod 7.5 μM
T1 construct: host or cells: HEK-Blue cells (HEK293-derived reporter line)
T1 sequence (Q9NYK1 27-1049): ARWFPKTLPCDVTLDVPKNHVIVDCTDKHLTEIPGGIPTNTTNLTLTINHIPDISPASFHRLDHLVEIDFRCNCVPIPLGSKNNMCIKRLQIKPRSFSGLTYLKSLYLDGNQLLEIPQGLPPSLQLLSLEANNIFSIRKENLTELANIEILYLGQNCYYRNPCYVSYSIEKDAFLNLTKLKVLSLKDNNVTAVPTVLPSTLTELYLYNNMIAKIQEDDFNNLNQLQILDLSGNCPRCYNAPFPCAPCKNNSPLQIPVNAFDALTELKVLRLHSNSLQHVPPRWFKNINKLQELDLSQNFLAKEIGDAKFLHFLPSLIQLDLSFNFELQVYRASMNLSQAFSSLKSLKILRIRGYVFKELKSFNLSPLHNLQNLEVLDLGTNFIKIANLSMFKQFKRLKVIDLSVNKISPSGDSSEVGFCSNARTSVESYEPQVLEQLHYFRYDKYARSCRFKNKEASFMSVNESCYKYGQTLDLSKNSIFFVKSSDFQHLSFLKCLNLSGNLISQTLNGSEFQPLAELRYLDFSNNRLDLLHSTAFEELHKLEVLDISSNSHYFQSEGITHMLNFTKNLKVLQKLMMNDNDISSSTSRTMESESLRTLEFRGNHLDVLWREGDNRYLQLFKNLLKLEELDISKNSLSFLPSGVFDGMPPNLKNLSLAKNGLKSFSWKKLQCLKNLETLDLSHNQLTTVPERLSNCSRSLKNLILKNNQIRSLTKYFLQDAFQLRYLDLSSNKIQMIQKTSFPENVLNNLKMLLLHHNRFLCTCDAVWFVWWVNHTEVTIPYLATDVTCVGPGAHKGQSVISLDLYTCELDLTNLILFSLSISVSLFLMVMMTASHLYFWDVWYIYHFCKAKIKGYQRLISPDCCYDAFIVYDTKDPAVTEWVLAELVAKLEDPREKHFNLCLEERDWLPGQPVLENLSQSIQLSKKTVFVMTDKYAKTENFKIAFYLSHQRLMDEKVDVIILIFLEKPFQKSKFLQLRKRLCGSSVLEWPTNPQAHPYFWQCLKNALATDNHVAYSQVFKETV
How it was run: (§1)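 Read-out is SEAP activity in HEK-Blue detection medium after 22 h at 37 °C, converted to percent inhibition against agonist-plus-DMSO and reference-inhibitor controls. Cells saw compound (0.05 nM–50 μM, 30 min, room temperature) before gardiquimod 7.5 μM, R848 15.9 μM or ODN2006 5 nM for TLR7, TLR8 and TLR9, respectively.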

human TLR8 = biological target: T2, human TLR8 (Homo sapiens, UniProt Q9NR97); assay: TLR8 inhibition reporter assay (HEK-Blue cells, SEAP reporter, R848 stimulation); settings: HEK-Blue cells overexpressing human TLR8, SEAP reporter, R848 15.9 μM
T2 construct: host or cells: HEK-Blue cells (HEK293-derived reporter line)
T2 sequence (Q9NR97 27-1041): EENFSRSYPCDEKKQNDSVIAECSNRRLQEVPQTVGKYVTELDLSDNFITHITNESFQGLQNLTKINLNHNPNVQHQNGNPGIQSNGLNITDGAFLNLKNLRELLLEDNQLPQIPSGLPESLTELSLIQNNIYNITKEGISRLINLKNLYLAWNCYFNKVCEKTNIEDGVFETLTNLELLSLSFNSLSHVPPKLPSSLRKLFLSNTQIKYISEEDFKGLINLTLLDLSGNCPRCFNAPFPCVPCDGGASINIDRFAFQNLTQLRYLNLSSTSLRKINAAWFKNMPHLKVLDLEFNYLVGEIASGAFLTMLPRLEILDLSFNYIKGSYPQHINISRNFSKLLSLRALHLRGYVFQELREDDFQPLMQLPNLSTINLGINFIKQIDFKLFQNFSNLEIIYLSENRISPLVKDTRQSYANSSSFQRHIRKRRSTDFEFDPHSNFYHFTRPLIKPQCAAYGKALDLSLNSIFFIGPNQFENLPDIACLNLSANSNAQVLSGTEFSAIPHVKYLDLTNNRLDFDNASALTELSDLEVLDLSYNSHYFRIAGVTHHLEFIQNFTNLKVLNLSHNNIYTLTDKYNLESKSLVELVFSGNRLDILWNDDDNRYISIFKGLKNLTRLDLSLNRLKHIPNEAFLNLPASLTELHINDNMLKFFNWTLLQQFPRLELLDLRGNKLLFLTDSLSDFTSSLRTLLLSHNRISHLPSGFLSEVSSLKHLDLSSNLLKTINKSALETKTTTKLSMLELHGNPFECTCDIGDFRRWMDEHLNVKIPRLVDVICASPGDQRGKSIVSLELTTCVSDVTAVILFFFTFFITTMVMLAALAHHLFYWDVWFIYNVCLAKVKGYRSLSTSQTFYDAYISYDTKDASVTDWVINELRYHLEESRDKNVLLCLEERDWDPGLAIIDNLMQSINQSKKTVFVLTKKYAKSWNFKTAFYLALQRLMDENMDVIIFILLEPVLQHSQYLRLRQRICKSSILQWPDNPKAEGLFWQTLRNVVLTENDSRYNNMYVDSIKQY
How it was run: as §1

human TLR9 = biological target: T3, human TLR9 (Homo sapiens, UniProt Q9NR96); assay: TLR9 inhibition reporter assay (HEK-Blue cells, SEAP reporter, ODN2006 stimulation); settings: HEK-Blue cells overexpressing human TLR9, SEAP reporter, ODN2006 5 nM
T3 construct: host or cells: HEK-Blue cells (HEK293-derived reporter line)
T3 sequence (Q9NR96 26-1032): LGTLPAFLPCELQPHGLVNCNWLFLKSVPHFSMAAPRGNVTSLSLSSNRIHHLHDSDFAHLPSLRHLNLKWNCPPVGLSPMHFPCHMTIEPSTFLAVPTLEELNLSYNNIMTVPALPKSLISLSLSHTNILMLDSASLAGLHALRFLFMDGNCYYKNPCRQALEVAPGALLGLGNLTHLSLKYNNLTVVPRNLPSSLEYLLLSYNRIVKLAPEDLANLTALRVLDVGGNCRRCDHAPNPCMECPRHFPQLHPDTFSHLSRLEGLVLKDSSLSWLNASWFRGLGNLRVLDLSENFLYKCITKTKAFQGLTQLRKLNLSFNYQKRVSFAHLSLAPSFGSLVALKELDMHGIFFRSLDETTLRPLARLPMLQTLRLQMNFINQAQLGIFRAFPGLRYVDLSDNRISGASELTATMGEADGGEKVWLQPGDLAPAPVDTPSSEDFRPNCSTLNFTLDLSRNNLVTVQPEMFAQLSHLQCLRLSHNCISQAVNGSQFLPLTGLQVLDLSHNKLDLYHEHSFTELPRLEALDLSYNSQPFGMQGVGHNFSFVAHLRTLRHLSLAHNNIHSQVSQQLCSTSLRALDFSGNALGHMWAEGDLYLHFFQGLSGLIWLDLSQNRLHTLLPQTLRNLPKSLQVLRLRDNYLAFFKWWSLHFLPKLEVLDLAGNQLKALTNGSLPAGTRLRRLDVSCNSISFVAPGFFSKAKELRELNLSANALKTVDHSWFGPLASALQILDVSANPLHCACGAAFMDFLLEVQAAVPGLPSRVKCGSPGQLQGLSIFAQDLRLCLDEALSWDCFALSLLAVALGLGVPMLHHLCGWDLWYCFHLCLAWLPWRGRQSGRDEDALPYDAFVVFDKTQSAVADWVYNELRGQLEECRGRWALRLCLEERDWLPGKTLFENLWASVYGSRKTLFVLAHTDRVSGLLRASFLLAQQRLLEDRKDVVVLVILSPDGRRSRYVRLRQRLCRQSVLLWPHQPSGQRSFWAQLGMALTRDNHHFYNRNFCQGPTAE
How it was run: as §1

IC50 (human TLR7)	IC50 (human TLR8)	IC50 (human TLR9)	Structure (SMILES)
< 0.1 µM	< 0.1 µM	0.1 to 1 µM	Cc1ncc(CN2CCC(c3ccc4[nH]c(-c5ccnc6[nH]ncc56)c(C(C)C)c4c3)CC2)[nH]1 [Example 869, 4-(3-isopropyl-5-(1-((2-methyl-1H-imidazol-5-yl)methyl)piperidin-4-yl)-1H-indol-2-yl)-1H-pyrazolo[3,4-b]pyridine]
< 0.1 µM	< 0.1 µM	1 to 50 µM	CC(C)c1c(-c2cnc3c(cnn3C)c2)[nH]c2ccc(C3CCN(CC(=O)N(C)C)CC3)cc12 [Example 367, 2-(4-(3-isopropyl-2-(1-methyl-1H-pyrazolo[3,4-b]pyridin-5-yl)-1H-indol-5-yl)piperidin-1-yl)-N,N-dimethylacetamide]
< 0.1 µM	< 0.1 µM	1 to 50 µM	CC(C)c1c(-c2ccnc3[nH]ncc23)[nH]c2ccc(C3CCN(C(=O)CN4CCC(CO)CC4)CC3)cc12 [Example 576, 2-(4-(hydroxymethyl)piperidin-1-yl)-1-(4-(3-isopropyl-2-(1H-pyrazolo[3,4-b]pyridin-4-yl)-1H-indol-5-yl)piperidin-1-yl)ethan-1-one]
< 0.1 µM	< 0.1 µM	0.1 to 1 µM	CC(C)c1c(-c2ccnc3[nH]ncc23)[nH]c2ccc(C3CCN(C(=O)C4CCCNC4)CC3)cc12 (stereo not drawn) [Example 636, (4-(3-isopropyl-2-(1H-pyrazolo[3,4-b]pyridin-4-yl)-1H-indol-5-yl)piperidin-1-yl)(piperidin-3-yl)methanone]
< 0.1 µM	0.1 to 1 µM	0.1 to 1 µM	Cc1nc2cc(-c3[nH]c4ccc(C5CCN(CC(C)(C)O)CC5)cc4c3C(C)C)ccn2n1 [Example 753, 1-(4-(3-isopropyl-2-(2-methyl-[1,2,4]triazolo[1,5-a]pyridin-7-yl)-1H-indol-5-yl)piperidin-1-yl)-2-methylpropan-2-ol]

Second part, the molecule before the results:

Structure (SMILES)	IC50 (human TLR7)	IC50 (human TLR8)	IC50 (human TLR9)
CC(C)c1c(-c2ccc3scnc3c2)[nH]c2ccc(C3CCNCC3)cc12 [Example 12, 5-(3-isopropyl-5-(piperidin-4-yl)-1H-indol-2-yl)benzo[d]thiazole]	0.1 to 1 µM	1 to 50 µM	0.1 to 1 µM
CC(C)c1c(-c2ccn3nnnc3c2)[nH]c2ccc(C3CCNCC3)cc12 [Example 82, 7-(3-isopropyl-5-(piperidin-4-yl)-1H-indol-2-yl)tetrazolo[1,5-a]pyridine]	< 0.1 µM	0.1 to 1 µM	1 to 50 µM
CC(C)c1c(-c2ccnc3c2ccn3S(C)(=O)=O)[nH]c2ccc(C3CCNCC3)cc12 [Example 3, 4-(3-isopropyl-5-(piperidin-4-yl)-1h-indol-2-yl)-1-(methylsulfonyl)-1H-pyrrolo[2,3-b]pyridine]	0.1 to 1 µM	< 0.1 µM	0.1 to 1 µM
CC(C)c1c(-c2ccnc3[nH]c(=O)[nH]c23)[nH]c2ccc(C3CCNCC3)cc12 [Example 57, 7-(3-isopropyl-5-(piperidin-4-yl)-1H-indol-2-yl)-1,3-dihydro-2H-imidazo[4,5-b]pyridin-2-one]	0.1 to 1 µM	1 to 50 µM	1 to 50 µM
CCOc1cc(-c2[nH]c3ccc(C4CCN(CC(=O)NC)CC4)cc3c2C(C)C)cc2nc(C)nn12 [Example 349, 2-(4-(2-(5-ethoxy-2-methyl-[1,2,4]triazolo[1,5-a]pyridin-7-yl)-3-isopropyl-1H-indol-5-yl)piperidin-1-yl)-N-methylacetamide]	< 0.1 µM	< 0.1 µM	1 to 50 µM
CC(C)c1c(-c2ccc3nccnc3c2)[nH]c2ccc(C3CCNCC3)cc12 [Example 165, 6-(3-isopropyl-5-(piperidin-4-yl)-1H-indol-2-yl)quinoxaline]	< 0.1 µM	0.1 to 1 µM	1 to 50 µM
CC(C)c1c(-c2cc(F)c3nccn3c2)[nH]c2ccc(C3CCNCC3)cc12 [Example 118, 8-fluoro-6-(3-isopropyl-5-(piperidin-4-yl)-1H-indol-2-yl)imidazo[1,2-a]pyridine]	< 0.1 µM	< 0.1 µM	0.1 to 1 µM
